This is an account of results in the supplement of paper PMC11061612.

Common to all, as to test: Bliss excess, mean over the matrix (fraction); higher = more synergy
Test [1] relates to CAPAN-2 (Pancreatic Carcinoma). The gist of the method: (§1)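 Cell lines in DMEM/F12 or RPMI with 10% FBS were plated in 1536-well plates, held 24 hours at 37°C, 5% CO2, then given two-drug dose matrices for 72 hours (DMSO typically 0.2%). Viability was read by CellTiter-Glo 2.0 luminescence and scaled as inhibition from 0 (vehicle wells) to 1 (blank wells). Combination Emax is the second-highest inhibition in the matrix; Bliss excess is observed combination effect minus expected EA + EB − EA·EB, EA and EB being single-agent effects.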

The subject of test [2] is COLO-824 (Breast Carcinoma). The gist of the method:
as §1

In another test the test system is GI-ME-N (Neuroblastoma). The gist of the method:
as §1

The test system of test [3] is MDST8 (Colorectal Carcinoma). The gist of the method:
as §1

Test [4] relates to NCI-H1581 (Non-Small Cell Lung Carcinoma). The gist of the method: as §1
In another test the test system is PA-1 (Ovarian Carcinoma). The gist of the method: as §1

For `CN(C)CCCOc1ccc(-c2ccc3ncc4c(c3c2)n(C2CCOCC2)c(=O)n4C)cn1` [AZD0156] + C=CCn1c(=O)c2cnc(Nc3ccc(N4CCN(C)CC4)cc3)nc2n1-c1cccc(C(C)(C)O)n1 [AZD1775] (first compound max 1 µM, partner max 1 µM), the Bliss excess was -0.0709 in test [1]; -0.0024 in test [2]; -0.0452 in the test on GI-ME-N (Neuroblastoma); -0.0358 in test [3]; -0.0641 in test [4]; -0.0546 with PA-1 (Ovarian Carcinoma).

In the case of `CN(C)CCCOc1ccc(-c2ccc3ncc4c(c3c2)n(C2CCOCC2)c(=O)n4C)cn1` [AZD0156] + CCN(CCO)CCCOc1ccc2c(Nc3cc(CC(=O)Nc4cccc(F)c4)[nH]n3)ncnc2c1 [AZD2811] (first compound max 1 µM, 7x7, partner max 1 µM), the Bliss excess in test [1] is -0.0637; in test [2], -0.0565; with GI-ME-N (Neuroblastoma) it was -0.0488; in test [3], 0.0279; in test [4], -0.007; with PA-1 (Ovarian Carcinoma), 0.038.

As for `CN(C)CCCOc1ccc(-c2ccc3ncc4c(c3c2)n(C2CCOCC2)c(=O)n4C)cn1` [AZD0156] + C[C@@H]1COCCN1C2=NC(=NC(=C2)C3(CC3)[S@](=N)(=O)C)C4=C5C=CNC5=NC=C4 [AZD6738] (first compound max 1 µM, 7x7, partner max 10 µM), the Bliss excess in test [1] was -0.0591; in test [2] it was 0.0425; in the test with GI-ME-N (Neuroblastoma), -0.015; in test [3] it was 0.0296; in test [4], 0.0005; with PA-1 (Ovarian Carcinoma), -0.0238.

Consider `C=CCn1c(=O)c2cnc(Nc3ccc(N4CCN(C)CC4)cc3)nc2n1-c1cccc(C(C)(C)O)n1` [AZD1775] + C[C@@H]1COCCN1C2=NC(=NC(=C2)C3(CC3)[S@](=N)(=O)C)C4=C5C=CNC5=NC=C4 [AZD6738] (first compound max 1 µM, partner max 10 µM), for which the Bliss excess is -0.0608 in test [1]; 0.0691 in test [2]; -0.0397 with GI-ME-N (Neuroblastoma); -0.0161 in test [3]; 0.0228 in test [4]; -0.01 in the test with PA-1 (Ovarian Carcinoma).

For the compound `C=CCn1c(=O)c2cnc(Nc3ccc(N4CCN(C)CC4)cc3)nc2n1-c1cccc(C(C)(C)O)n1` [AZD1775] + O=C(c1cc(Cc2n[nH]c(=O)c3ccccc23)ccc1F)N1CCN(C(=O)C2CC2)CC1 [Olaparib] (first compound max 1 µM, partner max 10 µM), the Bliss excess in test [1] is -0.0576; in test [2], -0.0423; in the test on GI-ME-N (Neuroblastoma), -0.0434; in test [3] it was -0.0308; in test [4], -0.0262; with PA-1 (Ovarian Carcinoma), -0.0037.

For `COc1nnc2ccc(N3CCC(c4ccc(OCCN5CCN(C)C(=O)[C@H]5C)cc4)CC3)nn12` [AZD5153] + CN(CC[C@H](CSC1=CC=CC=C1)NC2=C(C=C(C=C2)S(=O)(=O)NC(=O)C3=CC=C(C=C3)N4CCC(CC4)[C@H](C5=CC=CC=C5C6=CC=C(C=C6)Cl)O)S(=O)(=O)C(F)(F)F)CCO [AZD4320] (first compound max 1 µM, 7x7, partner max 1 µM), the Bliss excess amounted to 0.057 in test [2], 0.0077 with GI-ME-N (Neuroblastoma), 0.0929 in test [3] and 0.0659 in the test on PA-1 (Ovarian Carcinoma).

As to `Cc1c2c(nn1C)CSCc1cc(n(C)n1)CSc1cc(c3ccccc3c1)OCCCc1c(C(=O)O)n(C)c3c-2c(Cl)ccc13` [AZD5991] + C[C@@H]1COCCN1C2=NC(=NC(=C2)C3(CC3)[S@](=N)(=O)C)C4=C5C=CNC5=NC=C4 [AZD6738] (first compound max 1 µM, 7x7, partner max 10 µM), the Bliss excess in test [1] is 0.0543; in test [2], -0.009; in the test on GI-ME-N (Neuroblastoma), 0.0481; in test [4], -0.0036; with PA-1 (Ovarian Carcinoma), 0.0702.

`CC(=O)c1c(C)c2cnc(Nc3ccc(N4CCNCC4)cn3)nc2n(C2CCCC2)c1=O` [Palbociclib] + CN(CC[C@H](CSC1=CC=CC=C1)NC2=C(C=C(C=C2)S(=O)(=O)NC(=O)C3=CC=C(C=C3)N4CCC(CC4)[C@H](C5=CC=CC=C5C6=CC=C(C=C6)Cl)O)S(=O)(=O)C(F)(F)F)CCO [AZD4320] (first compound max 10 µM, 7x7, partner max 1 µM): the Bliss excess was 0.0326 in test [2], -0.0771 in the test on GI-ME-N (Neuroblastoma), -0.0168 in test [3] and -0.0315 in the test on PA-1 (Ovarian Carcinoma).

As for `CCc1c2c(nc3ccc(O)cc13)-c1cc3c(c(=O)n1C2)COC(=O)[C@]3(O)CC` [SN-38] + O=C(c1cc(Cc2n[nH]c(=O)c3ccccc23)ccc1F)N1CCN(C(=O)C2CC2)CC1 [Olaparib] (first compound max 0.3 µM, 7x7, partner max 10 µM), the Bliss excess in test [1] is -0.0382; in the test with GI-ME-N (Neuroblastoma), 0.0672; in test [3], -0.0419; in test [4] it was 0.0009; in the test with PA-1 (Ovarian Carcinoma), 0.0044.

As for `C[C@@H](c1ccc2nccn2c1)n1nnc2ncc(-c3cnn(C)c3)nc21` [Savolitinib] + CN(CC[C@H](CSC1=CC=CC=C1)NC2=C(C=C(C=C2)S(=O)(=O)NC(=O)C3=CC=C(C=C3)N4CCC(CC4)[C@H](C5=CC=CC=C5C6=CC=C(C=C6)Cl)O)S(=O)(=O)C(F)(F)F)CCO [AZD4320] (first compound max 1 µM, 7x7, partner max 1 µM), the Bliss excess was -0.0101 in test [2], -0.0699 with GI-ME-N (Neuroblastoma), -0.0668 in test [3] and -0.0096 in the test on PA-1 (Ovarian Carcinoma).
